Results on 6 molecules are retold here after ChEMBL document CHEMBL6115017, “Discovery of DFV890, a Potent Sulfonimidamide-Containing NLRP3 Inflammasome Inhibitor” (J Med Chem, 2025).

Data set [1] in a line: Fraction unbound in Sprague-Dawley rat plasma. Type of data set: ADME, cell-free.
Data set [2] in a line: Oral bioavailability in Sprague-Dawley rat at 5 mg/kg administered through oral gavage by LC-MS analysis. Type of data set: ADME, organism-based. Particulars: in vivo.
Data set [3] can be described thus: Half life in Sprague-Dawley rat at 5 mg/kg, po by LC-MS analysis. Particulars: in vivo. The data set is classed as ADME, organism-based.
A short description of data set [4]: Metabolic stability in rat hepatocytes assessed as intrinsic clearance measured per 10^6 cells. Type of data set: ADME, cell-based, Hepatocyte. Particulars: read-out: CLH.
Data set [5] in a line: Fraction unbound in human plasma. Type of data set: ADME, cell-free.
Data set [6] can be described thus: Volume of distribution at steady state in Sprague-Dawley rat at 5 mg/kg, po by LC-MS analysis. Particulars: in vivo. The data set is classed as ADME, organism-based.
Data set [7] can be described thus: Metabolic stability in human hepatocytes assessed as intrinsic clearance measured per 10^6 cells. To be noted: read-out: CLH. The data set is classed as ADME, cell-based, Hepatocyte.
Data set [8] can be described thus: Clearance in Sprague-Dawley rat at 5 mg/kg, po by LC-MS analysis. To be noted: in vivo. Type of data set: ADME, organism-based.
Data set [9] can be described thus: Solubility of the compound in PBS at pH 7.4. Type of data set: physicochemical.

The structures appear in SMILES notation. Converted amounts (≈) assume the structure as drawn.

Broadly, the fraction unbound is free concentration divided by total concentration. Usually bioavailability stands for dose-corrected exposure relative to a reference, in per cent. Broadly, the half-life is the time needed for the level to fall by half in the phase considered. The low end stands for fast loss, the high end for slow loss. What is called CL/F is the apparent clearance, not corrected for the fraction that reaches the circulation. Usually solubility stands for how much of the substance goes into solution per volume. A higher solubility goes with a readily soluble substance.

For the molecule `CC(C)(O)c1csc([S@](N)(=O)=NC(=O)Nc2c3c(cc4c2CCC4)CCC3)n1`, the results for the fraction unbound in data set [1] and in [5] were 0.02 and 0.014, respectively. The same molecule gave a bioavailability in data set [2] of 70%. This molecule also had a half-life in data set [3] of 4.13 h. In addition, the hepatocyte CLint in data set [4] is 5.2 µL/min/1e6 cells; in data set [7], 4.2 µL/min/1e6 cells. In addition, the Vdss in [6] worked out at 0.353 L/kg. The molecule further yielded a CL/F in [8] of 0.193 L/h/kg.
For `CC(C)(O)c1csc([S@](N)(=O)=NC(=O)Nc2c3c(cc4c2CCC4)CCC3)c1`, the fraction unbound in [1] came to 0.011; in data set [5], 0.009. Also, the bioavailability in data set [2] was determined as 50%. In data set [3], this molecule had a half-life of 2.91 h. Further, the hepatocyte CLint in data set [4] came out at 2.5 µL/min/1e6 cells; in [7] it was 3.6 µL/min/1e6 cells. Further, in data set [6], the Vdss came out at 0.191 L/kg. For the same molecule, the solubility in [9] was found to be 0.024 mg/mL (≈ 57.2 µM). Further, the CL/F in data set [8] stood at 0.069 L/h/kg.
As to `CC(C)(O)c1ncc([S@](N)(=O)=NC(=O)Nc2c3c(c(F)c4c2CCC4)CCC3)s1`, the fraction unbound in data set [1] amounted to 0.007; in data set [5], 0.003. In data set [2], the bioavailability worked out at 68%. In [3], this molecule showed a half-life of 3.07 h. The values for the hepatocyte CLint in data set [4] and in [7] were 3.7 µL/min/1e6 cells and 3 µL/min/1e6 cells, respectively. The molecule further gave a Vdss in data set [6] of 0.178 L/kg. Besides, the solubility in [9] is 0.008 mg/mL (≈ 18.2 µM). This molecule also returned a CL/F in data set [8] of 0.0648 L/h/kg.
As to `CC(C)(O)c1cnc([S@](N)(=O)=NC(=O)Nc2c3c(cc4c2CCC4)CCC3)s1`, the half-life in data set [3] was 2.6 h. In addition, the figures for the hepatocyte CLint in [4] and in data set [7] were 5.2 µL/min/1e6 cells and 0.63 µL/min/1e6 cells, respectively. This molecule displayed a fraction unbound in data set [5] of 0.009. In addition, the Vdss in data set [6] was 0.29 L/kg. This molecule had a CL/F in data set [8] of 0.222 L/h/kg.
Take `CC(C)(O)c1nc([S@](N)(=O)=NC(=O)Nc2c3c(cc4c2CCC4)CCC3)cs1`: the fraction unbound in data set [1] was determined as 0.05; in [5], 0.057. The molecule also had a bioavailability in [2] of 100%. The same molecule gave a half-life in data set [3] of 2.36 h. Also, the hepatocyte CLint stood at 5.4 µL/min/1e6 cells in data set [4] and 1.6 µL/min/1e6 cells in [7]. Further, in data set [6], the Vdss is 0.541 L/kg. The molecule also gave a CL/F in [8] of 0.666 L/h/kg.
Consider `CC(C)(O)c1coc(S(=O)(=O)NC(=O)Nc2c3c(cc4c2CCC4)CCC3)c1`, for which the values for the fraction unbound in data set [1] and in [5] were 0.013 and 0.007, respectively. In data set [2], this molecule had a bioavailability of 47%. For the same molecule, in [3], the half-life is 0.635 h. Also, the Vdss in data set [6] was 0.271 L/kg. The solubility in data set [9] stood at 1.08 mg/mL (≈ 2680 µM). In addition, the CL/F in [8] stood at 0.954 L/h/kg.
